# Experimental data as given in patent US20260308185A1, “STAT DEGRADERS AND USES THEREOF” (Recludix Pharma, Inc., priority 2023, published 2026).
# System: pSTAT6 (pY641-STAT6) in PBMC
# Test: MSD-pSTAT-PBMC Assay (pSTAT6)
# Type: cell-based
# Details: compound 3 hrs, then 1 ng/mL IL-4 for 10 min
# From the text: Cryopreserved Peripheral Blood Mononuclear Cells (PBMC) are from AllCells. Recombinant Human […] and IL-6 are from Peprotech. Mouse monoclonal anti-STAT3 antibody, rabbit monoclonal anti-pY705-STAT3 antibody, rabbit monoclonal Anti-pY641-STAT6 antibody, and lysis buffer are from Cell Signaling Technology (CST). Mouse monoclonal anti-STAT6 antibody is from BioLegend. Assay plates, blocker, and anti-rabbit secondary antibody are from Meso Scale Discovery (MSD).
# Cryopreserved PBMCs were thawed out and allowed to recover overnight in IMDM+10% heat-inactivated FBS prior to plating 50,000 (STAT3) or 25,000 (STAT6) cells per well in 96-well U-bottom tissue culture plates. Cells were treated with compound for 3 hrs, then stimulated with 10 ng/mL IL-6 (STAT3) or 1 ng/mL IL-4 (STAT6) for 10 min. Cells were then spun down and washed with ice-cold PBS prior to lysing the cell pellet with 1× lysis buffer (CST) with 1× HALT protease and phosphatase inhibitor cocktail (Thermo). Lysates were transferred to and incubated overnight at 4° C. with shaking in QuickPlex 96-well high bind assay plates (MSD) pre-coated overnight with 30 μL per well of 0.6 μg/mL mouse monoclonal anti-STAT3 antibody (STAT3) or 2 μg/mL mouse monoclonal anti-STAT6 antibody (STAT6) in 1×PBS, and pre-blocked for 1 hour with 3% Blocker-A (MSD). Captured protein in the assay plates were then washed and probed with 25 μL per well of 0.25 μg/ml rabbit monoclonal anti-pY705-STAT3 antibody (STAT3) or 0.18 μg/ml rabbit monoclonal Anti-pY641-STAT6 antibody (STAT6) in 1% Blocker-A for 1 hour at room temperature with shaking, then washed and probed with 25 ul per well of 1 ug/ml Sulfo-TAG Labeled Goat Anti-Rabbit Antibody (MSD) in 1% Blocker-A for 1 hour at room temperature with shaking. Assay plates were then washed and 150 μL of 1× Read Buffer-T (MSD) was added to each well prior to reading on an SQ120 MSD Plate Reader. Assay signal from each sample was subtracted by the signal from unstimulated control wells and normalized to DMSO control wells, IC50 values were calculated using Graph Pad Prism Dose-Response Nonlinear Regression with variable slope. For both pSTAT3 and pSTAT6 A=≤100 nM; B=>100-1000 nM; C=>1000-3000 nM; and D=>3 μM.
row,Compound,IC50 [nM]
1,"CCCC(=O)SCCOP(=O)(OCCSC(=O)CCC)C(F)(F)c1ccc2sc(C(=O)NC3CC4CC4CC4CCC(C(=O)N5CC(c6ccn(C7CCN(c8ccc9c(c8)[nH]c(=O)n9C8CCC(=O)NC8=O)CC7)c(=O)c6)CC56CC6)N4C3=O)cc2c1 [Compound 20, S,S′-(((((2-(((3S,6S,7aS,8aR,9aR)-3-((6R)-6-(1-(1-(1-(2,6-dioxopiperidin-3-yl)-2-oxo-2,3-dihydro-1H-benzo[d]imidazol-5-yl)piperidin-4-yl)-2-oxo-1,2-dihydropyridin-4-yl)-4-azaspiro[2.4]heptane-4-carbonyl)-5-oxodecahydro-1H-cyclopropa[d]pyrrolo[1,2-a]azocin-6-yl)carbamoyl)benzo[b]thiophen-5-yl)difluoromethyl)phosphoryl)bis(oxy))bis(ethane-2,1-diyl)) dibutanethioate]",100 to 1000
2,"CCCC(=O)SCCOP(=O)(OCCSC(=O)CCC)C(F)(F)c1ccc2sc(C(=O)NC3CC4CC4CC4CCC(C(=O)N5CC(C#N)C(c6cccc(OCCCCOc7ccc(C8CCC(=O)NC8=O)cc7)c6)C5)N4C3=O)cc2c1 [Compound 4, S,S′-(((((2-(((3S,6S,7aS,8aR,9aR)-3-((rel-3S,4R)-3-cyano-4-(3-(4-(4-(2,6-dioxopiperidin-3-yl)phenoxy)butoxy)phenyl)pyrrolidine-1-carbonyl)-5-oxodecahydro-1H-cyclopropa[d]pyrrolo[1,2-a]azocin-6-yl)carbamoyl)benzo[b]thiophen-5-yl)difluoromethyl)phosphoryl)bis(oxy))bis(ethane-2,1-diyl)) dibutanethioate]",100 to 1000
3,"CCCC(=O)SCCOP(=O)(OCCSC(=O)CCC)C(F)(F)c1ccc2sc(C(=O)NC3CC4CC4CC4CCC(C(=O)N5CC(C#N)C(c6cccc(N7CCN(c8ccc9c(c8)[nH]c(=O)n9C8CCC(=O)NC8=O)CC7)c6)C5)N4C3=O)cc2c1 [Compound 14, S,S′-(((((2-(((3S,6S,7aS,8aR,9aR)-3-((rel-3S,4R)-3-cyano-4-(3-(4-(1-(2,6-dioxopiperidin-3-yl)-2-oxo-2,3-dihydro-1H-benzo[d]imidazol-5-yl)piperazin-1-yl)phenyl)pyrrolidine-1-carbonyl)-5-oxodecahydro-1H-cyclopropa[d]pyrrolo[1,2-a]azocin-6-yl)carbamoyl)benzo[b]thiophen-5-yl)difluoromethyl)phosphoryl)bis(oxy))bis(ethane-2,1-diyl)) dibutanethioate]",< 100
4,"CCCC(=O)SCCOP(=O)(OCCSC(=O)CCC)C(F)(F)c1ccc2sc(C(=O)NC3CC4CC4CC4CCC(C(=O)N5CC(C#N)C(c6cccc(OCCOCCOc7cccc8c7CN(C7CCC(=O)NC7=O)C8=O)c6)C5)N4C3=O)cc2c1 [Compound 16, S,S′-(((((2-(((3S,6S,7aS,8aR,9aR)-3-((rel-3S,4R)-3-cyano-4-(3-(2-(2-((2-(2,6-dioxopiperidin-3-yl)-1-oxoisoindolin-4-yl)oxy)ethoxy)ethoxy)phenyl)pyrrolidine-1-carbonyl)-5-oxodecahydro-1H-cyclopropa[d]pyrrolo[1,2-a]azocin-6-yl)carbamoyl)benzo[b]thiophen-5-yl)difluoromethyl)phosphoryl)bis(oxy))bis(ethane-2,1-diyl)) dibutanethioate]",< 100
5,"CCCC(=O)SCCOP(=O)(OCCSC(=O)CCC)C(F)(F)c1ccc2sc(C(=O)NC3CC4CC4CC4CCC(C(=O)N5CC(C#N)C(c6cccc(OCCCCCC#Cc7cccc8c7CN(C7CCC(=O)NC7=O)C8=O)c6)C5)N4C3=O)cc2c1 [Compound 8, S,S′-(((((2-(((3S,6S,7aS,8aR,9aR)-3-((rel-3S,4R)-3-cyano-4-(3-((7-(2-(2,6-dioxopiperidin-3-yl)-1-oxoisoindolin-4-yl)hept-6-yn-1-yl)oxy)phenyl)pyrrolidine-1-carbonyl)-5-oxodecahydro-1H-cyclopropa[d]pyrrolo[1,2-a]azocin-6-yl)carbamoyl)benzo[b]thiophen-5-yl)difluoromethyl)phosphoryl)bis(oxy))bis(ethane-2,1-diyl)) dibutanethioate]",< 100
6,"CCCC(=O)SCCOP(=O)(OCCSC(=O)CCC)C(F)(F)c1ccc2sc(C(=O)NC3CC4CC4CC4CCC(C(=O)N5CC(c6ccn(CCCCCOc7ccc(C8CCC(=O)NC8=O)cc7)c(=O)c6)CC56CC6)N4C3=O)cc2c1 [Compound 9, S,S′-(((((2-(((3S,6S,7aS,8aR,9aR)-3-((6R)-6-(1-(5-(4-(2,6-dioxopiperidin-3-yl)phenoxy)pentyl)-2-oxo-1,2-dihydropyridin-4-yl)-4-azaspiro[2.4]heptane-4-carbonyl)-5-oxodecahydro-1H-cyclopropa[d]pyrrolo[1,2-a]azocin-6-yl)carbamoyl)benzo[b]thiophen-5-yl)difluoromethyl)phosphoryl)bis(oxy))bis(ethane-2,1-diyl)) dibutanethioate]",< 100
7,"CCCC(=O)SCCOP(=O)(OCCSC(=O)CCC)C(F)(F)c1ccc2sc(C(=O)NC3CC4CC4CC4CCC(C(=O)N5CC(c6ccn(CCCCCCC#Cc7cccc8c7CN(C7CCC(=O)NC7=O)C8=O)c(=O)c6)CC56CC6)N4C3=O)cc2c1 [Compound 6, S,S′-(((((2-(((3S,6S,7aS,8aR,9aR)-3-((6R)-6-(1-(8-(2-(2,6-dioxopiperidin-3-yl)-1-oxoisoindolin-4-yl)oct-7-yn-1-yl)-2-oxo-1,2-dihydropyridin-4-yl)-4-azaspiro[2.4]heptane-4-carbonyl)-5-oxodecahydro-1H-cyclopropa[d]pyrrolo[1,2-a]azocin-6-yl)carbamoyl)benzo[b]thiophen-5-yl)difluoromethyl)phosphoryl)bis(oxy))bis(ethane-2,1-diyl)) dibutanethioate]",< 100
8,"CCCC(=O)SCCOP(=O)(OCCSC(=O)CCC)C(F)(F)c1ccc2sc(C(=O)NC3CC4CC4CC4CCC(C(=O)N5CC(c6ccn(CCOCCOCCOc7cccc8c7CN(C7CCC(=O)NC7=O)C8=O)c(=O)c6)CC56CC6)N4C3=O)cc2c1 [Compound 18, S,S′-(((((2-(((3S,6S,7aS,8aR,9aR)-3-((6R)-6-(1-(2-(2-(2-((2-(2,6-dioxopiperidin-3-yl)-1-oxoisoindolin-4-yl)oxy)ethoxy)ethoxy)ethyl)-2-oxo-1,2-dihydropyridin-4-yl)-4-azaspiro[2.4]heptane-4-carbonyl)-5-oxodecahydro-1H-cyclopropa[d]pyrrolo[1,2-a]azocin-6-yl)carbamoyl)benzo[b]thiophen-5-yl)difluoromethyl)phosphoryl)bis(oxy))bis(ethane-2,1-diyl)) dibutanethioate]",100 to 1000
